Measured values reported in US7759345B2, “Antitumoral derivatives of ET-743” (priority 2001, dated 2010).
Where two headings read alike, the source gives them in different places.

Key:
P-388 = test: Inhibition of cell growth by counting cells, P-388; type: cell-based, mouse; settings: Mus musculus, P388, 72 h, read-out: IC50 (molar) P-388
Experimental: (§1) 1°.—Inhibition of Cell Growth by Counting Cells.
(§2) This form of the assay employs 24 well multidishes of 16 mm diameter (Bergeron, 1984; Schroeder, 1981). The tumor cell lines employed are: P-388 (ATCC CCL 46), suspension culture of a lymphoid neoplasm from a DBA/2 mouse; A-549 (ATCC CCL 185), monolayer culture of a human lung carcinoma; HT-29 (ATCC HTB-38), monolayer culture of a human colon carcinoma; MEL-28 (ATCC HTB-72), monolayer culture of a human melanoma and DU-145 (ATCC HTB-81), monolayer culture of a human prostate carcinoma.
(§3) Cells were maintained, in logarithmic phase of growth in Eagle's Minimum Essential Medium, with Earle's Balanced Salts, with non-essential amino acids, with 2.0 mM L-Glutamine, without sodium bicarbonate (EMEM/neaa), supplemented with 10% Fetal Calf Serum (FCS), 10^−2 M. sodium bicarbonate and 0.1 U/l penicillin G+0.1 g/l streptomycin sulfate. For the experiments, cells are harvested from subconfluent cultures using trypsin and resuspended in fresh medium before plating.
(§4) P-388 cells were seeded into 16 mm diameter wells at 1×10^4 cells per well in 1 ml aliquots of EMEM 5% FCS containing different concentrations of the sample to be tested. A separate set of cultures without drug was seeded as control of growth, to ensure that cells remained in exponential phase of growth. All determinations are carrying out in duplicate.
(§5) For quantifying the activity, after the incubation time, cells are trypsinized and counted in a Coulter Counter ZM. All counts (net cells per well), represent the average of duplicate wells. % G, percent of growth relative to cultures without drug. The results of these assays are used to generate dose-response curves from which more precise IC50 values are determined (sample concentration which produces 50% cell growth inhibition).
(§6) Obtained results may predict the usefulness of a certain drug as a potential cancer treatment. For this technique, compounds which show IC50 values smaller than 1 μg/ml are selected to continue with further studies. IC50's data allow to predict that not only could a drug be cystostatic, but also it could have a potential in terms of tumor reduction.

A-549 = test: Inhibition of cell growth by counting cells, A-549; type: cell-based, human; settings: Homo sapiens, A549, 72 h, read-out: IC50 (molar) A-549
Experimental: as §1, §2, §3
as §4, with “A-549, HT-29, MEL-28 and DU-145” for “P-388”, “duplicate. After three days of incubation at 37° C., 5% CO2 in a 98% humid atmosphere cells were stained with 0.1% crystal violet. An approximately IC50 was determined by comparing the growth in wells with drug to the growth in wells control.” for “duplicate.”
as §5, §6

HT-29 = test: Inhibition of cell growth by counting cells, HT-29; type: cell-based, human; settings: Homo sapiens, HT-29, 72 h, read-out: IC50 (molar) HT-29
Experimental: as §1, §2, §3
as §4, with “A-549, HT-29, MEL-28 and DU-145” for “P-388”, “duplicate. After three days of incubation at 37° C., 5% CO2 in a 98% humid atmosphere cells were stained with 0.1% crystal violet. An approximately IC50 was determined by comparing the growth in wells with drug to the growth in wells control.” for “duplicate.”
as §5, §6

MEL-28 = test: Inhibition of cell growth by counting cells, MEL-28; type: cell-based, human; settings: Homo sapiens, SK-MEL-28, 72 h, read-out: IC50 (molar) MEL-28
Experimental: as §1, §2, §3
as §4, with “A-549, HT-29, MEL-28 and DU-145” for “P-388”, “duplicate. After three days of incubation at 37° C., 5% CO2 in a 98% humid atmosphere cells were stained with 0.1% crystal violet. An approximately IC50 was determined by comparing the growth in wells with drug to the growth in wells control.” for “duplicate.”
as §5, §6

SMILES | IC50 (P-388; three days of incubation) | IC50 (A-549; three days of incubation) | IC50 (HT-29; three days of incubation) | IC50 (MEL-28; three days of incubation) | IC50 (P-388) | IC50 (A-549) | IC50 (HT-29) | IC50 (MEL-28)
COc1cc2c(cc1OC(C)=O)CCN[C@]21CS[C@@H]2c3c(OC(C)=O)c(C)c4c(c3[C@H](COC1=O)N1C2[C@H]2c3c(cc(C)c(OC)c3O)C[C@@H]([C@@H]1C#N)N2C)OCO4 (some centres unmarked) [Compound 2] | 148 pM | 148 pM | 148 pM | 148 pM | – | – | – | –
COc1cc2c(cc1OC(C)=O)CCN[C@]21CS[C@@H]2c3c(OC(C)=O)c(C)c4c(c3[C@H](COC1=O)N1C2[C@H]2c3c(cc(C)c(OC)c3OC(C)=O)C[C@@H]([C@@H]1C#N)N2C)OCO4 (some centres unmarked) [Compound 6] | 1410 pM | 2930 pM | 2930 pM | 2930 pM | – | – | – | –
C=CCOC(=O)Oc1cc2c(cc1OC)[C@@]1(CS[C@@H]3c4c(OC(C)=O)c(C)c5c(c4[C@H](COC1=O)N1C3[C@H]3c4c(cc(C)c(OC)c4O)C[C@@H]([C@@H]1C#N)N3C)OCO5)NCC2 (some centres unmarked) [Compound 25] | 141 pM | 141 pM | 141 pM | 141 pM | – | – | – | –
C=CCOC(=O)Oc1cc2c(cc1OC)[C@@]1(CS[C@@H]3c4c(OC(C)=O)c(C)c5c(c4[C@H](COC1=O)N1C3[C@H]3c4c(cc(C)c(OC)c4OC(=O)OCC=C)C[C@@H]([C@@H]1C#N)N3C)OCO5)NCC2 (some centres unmarked) [Compound 26] | 5330 pM | 5330 pM | 5330 pM | 5330 pM | – | – | – | –
CCOc1cc2c(cc1OC)[C@@]1(CS[C@@H]3c4c(OC(C)=O)c(C)c5c(c4[C@H](COC1=O)N1C3[C@H]3c4c(cc(C)c(OC)c4O)C[C@@H]([C@@H]1C#N)N3C)OCO5)NCC2 (some centres unmarked) [Compound 37] | 125 pM | 125 pM | 125 pM | 125 pM | – | – | – | –
CCCOc1cc2c(cc1OC)[C@@]1(CS[C@@H]3c4c(OC(C)=O)c(C)c5c(c4[C@H](COC1=O)N1C3[C@H]3c4c(cc(C)c(OC)c4O)C[C@@H]([C@@H]1C#N)N3C)OCO5)NCC2 (some centres unmarked) [Compound 39] | 616 pM | 616 pM | 616 pM | 616 pM | – | – | – | –
COc1cc2c(cc1O)CCN[C@]21CS[C@@H]2c3c(OC(C)=O)c(C)c4c(c3[C@H](COC1=O)N1C2[C@H]2c3c(cc(C)c(OC)c3OC(C)=O)C[C@@H]([C@@H]1C#N)N2C)OCO4 (some centres unmarked) [Compound 51] | 616 pM | 1230 pM | 1230 pM | 1230 pM | – | – | – | –
COc1cc2c(cc1OP(=O)(OCc1ccccc1)OCc1ccccc1)CCN[C@]21CS[C@@H]2c3c(OC(C)=O)c(C)c4c(c3[C@H](COC1=O)N1C2[C@H]2c3c(cc(C)c(OC)c3O)C[C@@H]([C@@H]1C#N)N2C)OCO4 (some centres unmarked) [Compound 53] | – | – | – | – | 4850 pM | 9710 pM | 9710 pM | 9710 pM
COc1cc2c(cc1O)CCN(C)[C@]21CS[C@@H]2c3c(OC(C)=O)c(C)c4c(c3[C@H](COC1=O)N1C2[C@H]2c3c(cc(C)c(OC)c3O)C[C@@H]([C@@H]1C#N)N2C)OCO4 (some centres unmarked) [Compound 54] | 128 pM | 128 pM | 128 pM | 128 pM | – | – | – | –
CCCN1CCc2cc(O)c(OC)cc2[C@@]12CS[C@@H]1c3c(OC(C)=O)c(C)c4c(c3[C@H](COC2=O)N2C1[C@H]1c3c(cc(C)c(OC)c3O)C[C@@H]([C@@H]2C#N)N1C)OCO4 (some centres unmarked) [Compound 56] | 123 pM | 123 pM | 123 pM | 123 pM | – | – | – | –
COc1cc2c(cc1OC(C)=O)CCN[C@]21CS[C@@H]2c3c(OC(C)=O)c(C)c4c(c3[C@H](COC1=O)N1C2[C@H]2c3c(cc(C)c(OC)c3OC(C)=O)C[C@@H]([C@@H]1O)N2C)OCO4 (some centres unmarked) [Compound 80] | 2960 pM | 5920 pM | 5920 pM | 5920 pM | – | – | – | –
COc1cc2c(cc1O)CCN[C@]21CS[C@@H]2c3c(OC(C)=O)c(C)c4c(c3[C@H](COC1=O)N1C2[C@H]2c3c(cc(C)c(OC)c3OC(C)=O)C[C@@H]([C@@H]1O)N2C)OCO4 (some centres unmarked) [Compound 96] | 1250 pM | 1250 pM | 1250 pM | 1250 pM | – | – | – | –
CCCOc1c(C)c2c(c3c1[C@H]1SC[C@]4(NCCc5cc(O)c(OC)cc54)C(=O)OC[C@@H]3N3C1[C@H]1c4c(cc(C)c(OC)c4O)C[C@@H]([C@@H]3O)N1C)OCO2 (some centres unmarked) [Compound 178] | – | 1310 pM | 1310 pM | – | – | – | – | –
C=CCOc1c(C)c2c(c3c1[C@H]1SC[C@]4(NCCc5cc(O)c(OC)cc54)C(=O)OC[C@@H]3N3C1[C@H]1c4c(cc(C)c(OC)c4OCC=C)C[C@@H]([C@@H]3O)N1C)OCO2 (some centres unmarked) [Compound 179] | – | 12500 pM | 12500 pM | – | – | – | – | –
COc1cc2c(cc1O)CCN[C@]21CS[C@@H]2c3c(OCc4ccccc4)c(C)c4c(c3[C@H](COC1=O)N1C2[C@H]2c3c(cc(C)c(OC)c3O)C[C@@H]([C@@H]1O)N2C)OCO4 (some centres unmarked) [Compound 180] | – | 618 pM | 618 pM | – | – | – | – | –
COc1cc2c(cc1O)CCN[C@]21CS[C@@H]2c3c(OCc4ccccc4)c(C)c4c(c3[C@H](COC1=O)N1C2[C@H]2c3c(cc(C)c(OC)c3OCc3ccccc3)C[C@@H]([C@@H]1O)N2C)OCO4 (some centres unmarked) [Compound 181] | – | 11100 pM | 11100 pM | – | – | – | – | –
COc1cc2c(cc1O)CCN[C@]21CS[C@@H]2c3c(O)c(C)c4c(c3[C@H](COC1=O)N1C2[C@@H]2N[C@@H](Cc3cc(C)c(OC)c(O)c32)[C@@H]1C#N)OCO4 (some centres unmarked) [Compound 184] | 699 pM | 699 pM | 699 pM | 699 pM | – | – | – | –
COc1cc2c(cc1O)CCN(C)[C@]21CS[C@@H]2c3c(OC(C)=O)c(C)c4c(c3[C@H](COC1=O)N1C[C@@H]3Cc5cc(C)c(OC)c(O)c5[C@H](C21)N3C)OCO4 (some centres unmarked) [Compound 185] | 13200 pM | 13200 pM | 13200 pM | 13200 pM | – | – | – | –
COc1cc2c(cc1O)CCN[C@]21CS[C@@H]2c3c(OC(C)=O)c(C)c4c(c3[C@H](COC1=O)N1C2[C@@H]2N[C@@H](Cc3cc(C)c(OC)c(O)c32)[C@@H]1C#N)OCO4 (some centres unmarked) [Compound 186] | 159 pM | 159 pM | 159 pM | 159 pM | – | – | – | –
C=CCOC(=O)Oc1cc2c(cc1OC)[C@@]1(CS[C@@H]3c4c(OC(C)=O)c(C)c5c(c4[C@H](COC1=O)N1C3[C@H]3c4c(cc(C)c(OC)c4O)C[C@@H]([C@@H]1C#N)N3C(=O)OCC=C)OCO5)NCC2 (some centres unmarked) [Compound 187] | 1080 pM | 1080 pM | 1080 pM | 1080 pM | – | – | – | –
COc1cc2c(cc1O)CCN[C@]21CS[C@@H]2c3c(OC(C)=O)c(C)c4c(c3[C@H](COC1=O)N1C2[C@H]2c3c(cc(C)c(OC)c3O)C[C@@H]([C@@H]1C#N)N2C(=O)OC(C)(C)C)OCO4 (some centres unmarked) [Compound 188] | 583 pM | 583 pM | 583 pM | 583 pM | – | – | – | –
COc1cc2c(cc1OC(=O)OC(C)(C)C)CCN[C@]21CS[C@@H]2c3c(OC(C)=O)c(C)c4c(c3[C@H](COC1=O)N1C2[C@@H]2N[C@@H](Cc3cc(C)c(OC)c(O)c32)[C@@H]1C#N)OCO4 (some centres unmarked) [Compound 189] | 583 pM | 583 pM | 583 pM | 583 pM | – | – | – | –
CCCCCCCC(=O)Oc1cc2c(cc1OC)[C@@]1(CS[C@@H]3c4c(OC(C)=O)c(C)c5c(c4[C@H](COC1=O)N1C3[C@@H]3N[C@@H](Cc4cc(C)c(OC)c(OC(=O)CCCCCCC)c43)[C@@H]1O)OCO5)NCC2 (some centres unmarked) [Compound 214] | – | 5000 pM | 5000 pM | – | – | – | – | –
CCCCCCCCCCCCCCCC(=O)Oc1cc2c(cc1OC)[C@@]1(CS[C@@H]3c4c(OC(C)=O)c(C)c5c(c4[C@H](COC1=O)N1C3[C@@H]3N[C@@H](Cc4cc(C)c(OC)c(OC(=O)CCCCCCCCCCCCCCC)c43)[C@@H]1O)OCO5)NCC2 (some centres unmarked) [Compound 216] | – | 81600 pM | 81600 pM | – | – | – | – | –
COc1cc2c(cc1O)CCN[C@]21CS[C@@H]2c3c(OC(C)=O)c(C)c4c(c3[C@H](COC1=O)N1C2[C@H]2c3c(cc(C)c(O)c3O)C[C@@H]([C@@H]1O)N2C)OCO4 (some centres unmarked) [Compound 221] | – | 1340 pM | 1340 pM | – | – | – | – | –
